Data: patent US20040191287A1, “Fumigation process for stored food grains” (priority 2003, published 2004)
Like-named read-outs stand apart in the source and are kept apart here.

Legend:
[1] = tested on: R. dominica mixed-age cultures; experiment: Mixed-age cultures exposed to allyl acetate in desiccators (Example 3); format: in vivo; details: Rhyzopertha dominica, read-out: Mortality (%) (Mean ± SD); for mortality at 25 µg/mL: 25 mg/liter; for mortality at 50 µg/mL: 50 mg/liter; for mortality at 100 µg/mL: 100 mg/liter; for mortality at 150 µg/mL: 150 mg/liter
Protocol: (§1) The grain/ flour containing mixed- age culture of the insect was weighted into 15 cm diameter paper plates in 50 gm aliquots and kept in 0.85 litre desiccators. A 9 cm size Whatman No.1 filter circle was placed in each desiccator to act as evaporating surface for allyl acetate when injected. The insects were exposed to 4 doses of allyl acetate i.e., 25, 50, 100 and 150 mg/liter. Allyl acetate was drawn from the bottle using 100 and 250 micro liter liquid syringes and injected into the desiccators, so that the liquid falls on the filter circle inside the desiccator. There were three replicates each for each dose and for each exposure period. […] Insects emerged from wheat (S. oryzae and R. dominica) or survived in wheat flour (T. castaneum) samples were checked at weekly intervals for 8 weeks. Similarly, counts were made in untreated control batches. Mortality in treated batches was determined by taking into account of survival/emergence in controls as 100%. […] For example, allyl acetate at 25 mg/litre with 48-hour exposure caused 99.8% kill in R. dominica whereas, 85.1 and 86.5% mortality was recorded, respectively, in S. oryzae and T. castaneum.

[2] = tested on: S. oryzae mixed-age cultures; experiment: as above; format: in vivo; details: Sitophilus oryzae, read-out: Mortality (%) (Mean ± SD); for mortality at 25 µg/mL: 25 mg/liter; for mortality at 50 µg/mL: 50 mg/liter; for mortality at 100 µg/mL: 100 mg/liter; for mortality at 150 µg/mL: 150 mg/liter
Protocol: as §1

[3] = tested on: T. castaneum mixed-age cultures; experiment: as above; format: in vivo; details: Tribolium castaneum, read-out: Mortality (%) (Mean ± SD); for mortality at 25 µg/mL: 25 mg/liter; for mortality at 50 µg/mL: 50 mg/liter; for mortality at 100 µg/mL: 100 mg/liter; for mortality at 150 µg/mL: 150 mg/liter
Protocol: as §1

[4] = tested on: S. oryzae mixed-age cultures; experiment: Fumigation in 125 litre plastic drums with 100 kg wheat, with/without perforated tubing (Example 6); format: in vivo, Sitophilus oryzae; details: for Insect Survivors / mortality at 200 µg/mL: S. oryzae, 200 mg/liter, 72 hours, 26 ± 2° C., 125 liter drum, 100 kg wheat; for mortality at 200 µg/mL: 72 h, read-out: % mortality based on survivors in untreated controls
Protocol: (§2) In another set of experiments, fumigations were carried out in the plastic drums with 100 kg […] acetate (27 ml of liquid) was dispensed at one location, that is, on the top layer of the grain. In both sets of experiments, there were 3 replicates for control and fumigated batches.
(§3) Insect mortality in fumigated batches was determined by taking into consideration of survivors in respective controls as 100%.

[5] = tested on: R. dominica mixed-age cultures; experiment: as above; format: in vivo, Rhyzopertha dominica; details: for Insect Survivors / mortality at 200 µg/mL: R. dominica, 200 mg/liter, 72 hours, 26 ± 2° C., 125 liter drum, 100 kg wheat; for mortality at 200 µg/mL: 72 h, read-out: % mortality based on survivors in untreated controls
Protocol: as §2, §3

rat = details: cited from earlier work
[6] = tested on: S. oryzae mixed-age cultures; details: 72 hours at 26±2° C., 19.5 liter tin container with 12 kg wheat
From the text: (§4) Fumigation experiments with allyl acetate have been conducted in 19.5 litre capacity tin containers with mixed- age cultures of R. dominica, S. oryzae and T. castaneum as the test insects.
(§5) Mixed-age cultures of S. oryzae and R. dominica were obtained by allowing 300 adults of the individual species to breed in about 1 kg of wheat in a 2-liter glass jar. To obtain mixed- age culture of T. castaneum about 300 adults were released into 1 kg of whole-wheat flour plus 5% dried yeast in a 2-litre glass jar. The insect culture jars were kept under the rearing temperature conditions i.e., 25±1° C. for S. oryzae and T. castaneum and 30±1° C. for R. dominica.
(§6) The infested grain/flour after an incubation period of 7 weeks was used for the experiment. The cultures were weighed into 50 gm aliquots in 21 cm×14 cm size cloth bags. One set of three test insect bags comprising R. dominica, S. oryzae and T. castaneum were kept at the bottom of the container before filling the grain.
(§7) Another set of three-test insect bags was kept on the top layer of grains. The grain-filled containers were, then, fumigated with allyl acetate for 72 hours at 26±2° C. There were 6 doses ranging from 100 to 800 mg/litre with 3 replicates/dosage along with untreated controls. Required quantity of allyl acetate was measured in 10 and 25 ml measuring cylinder and quickly poured on to 5 gm of absorbent cotton wool kept over the grain layer in the tin container.
(§8) Immediately after dosing, the container was closed with the lid tightly and sealed along the rim with adhesive tape. At the end of 72 hour, the lid was removed to aerate the commodity and the test insect bags were retrieved and the contents transferred to 300 ml capacity glass bottles.
(§9) Insect survivors in the samples were recorded at weekly intervals for 8 weeks. Mortality in fumigated batches was calculated based on emergence/survivors in controls.

[7] = tested on: T. castaneum mixed-age cultures; details: 72 hours at 26±2° C., 19.5 liter tin container with 12 kg wheat
From the text: as §4, §5, §6, §7, §8, §9

[8] = tested on: R. dominica mixed-age cultures; details: 200 mg/liter, 26 ± 2° C., 19.5 liter tin container with 12 kg of wheat
Protocol: (§10) Further fumigation tests were carried out with allyl acetate at 200 mg/litre and with three different exposure periods of 24, 48 and 72 hours in 19.5 litre tin containers filled with 12 kg of wheat. Mixed- age cultures of R. dominica, S. oryzae and T. castaneum were used as the test insects.
(§11) Mixed-age cultures of S. oryzae and R. dominica were obtained by allowing 300 adults of the individual species to breed in about 1 kg of wheat in a 2-liter glass jar. To obtain mixed- age culture of T. castaneum about 300 adults were released into 1 kg of whole-wheat flour plus 5% dried yeast in a 2-litre glass jar. The insect culture jars were kept under the rearing temperature conditions i.e., 25±1° C. for S. oryzae and T. castaneum and 30±1° C. for R. dominica. The infested grain/flour after an incubation period of 7 weeks was used for the experiment. The cultures were weighed into 50 gm aliquots in 21 cm×14 cm size cloth bags. One set of three test insect bags comprising R. dominica, S. oryzae and T. castaneum were kept at the bottom of the container before filling the grain. […] Another set of three-test insect bags was kept on the top layer of grains. The grain-filled containers were, then, fumigated with allyl acetate for 24, 48 and 72 hours at 26±2° C. The commodity was treated with allyl acetate at the dosage of 200 mg/litre. Required quantity of allyl acetate was measured in 10 and 25 ml measuring cylinder and quickly poured on to 5 gm of absorbent cotton wool kept over the grain layer in the tin container. Immediately after dosing, the container was closed with the lid tightly and sealed along the rim with adhesive tape. At the end of the exposure period, the lid was removed to aerate the commodity and the test insect bags were retrieved and the contents transferred to 300 ml capacity glass bottles. Insect survivors in the samples were recorded at weekly intervals for 8 weeks. Mortality in fumigated batches was calculated based on emergence/survivors in controls.

[9] = tested on: T. castaneum mixed-age cultures; details: 200 mg/liter, 26 ± 2° C., 19.5 liter tin container with 12 kg of wheat
Protocol: as §10, §11

[10] = with perforated tubing, test insect bag at bottom layer
[11] = with perforated tubing, test insect bag at middle layer
[12] = with perforated tubing, test insect bag at top layer
[13] = without perforated tubing, test insect bag at bottom layer
[14] = without perforated tubing, test insect bag at middle layer
[15] = without perforated tubing, test insect bag at top layer

C=CCOC(C)=O [allyl acetate]
mortality at 25 µg/mL ([1]; 24 hours exposure): 99.8 ± 0.3%
mortality at 50 µg/mL ([1]; 24 hours exposure): 100%
mortality at 100 µg/mL ([1]; 24 hours exposure): 100%
mortality at 150 µg/mL ([1]; 24 hours exposure): 100%
mortality at 25 µg/mL ([1]; 48 hours exposure): 99.8%
mortality at 50 µg/mL ([1]; 48 hours exposure): 99.8 ± 0.4%
mortality at 100 µg/mL ([1]; 48 hours exposure): 100%
mortality at 150 µg/mL ([1]; 48 hours exposure): 100%
mortality at 25 µg/mL ([1]; 120 hours exposure): 99.8 ± 0.5%
mortality at 50 µg/mL ([1]; 120 hours exposure): 100%
mortality at 100 µg/mL ([1]; 120 hours exposure): 100%
mortality at 150 µg/mL ([1]; 120 hours exposure): 100%
mortality at 25 µg/mL ([2]; 24 hours exposure): 87.9 ± 4.1%
mortality at 50 µg/mL ([2]; 24 hours exposure): 98 ± 1.5%
mortality at 100 µg/mL ([2]; 24 hours exposure): 100%
mortality at 150 µg/mL ([2]; 24 hours exposure): 100%
mortality at 25 µg/mL ([2]; 48 hours exposure): 85.1%
mortality at 50 µg/mL ([2]; 48 hours exposure): 98.9 ± 1.3%
mortality at 100 µg/mL ([2]; 48 hours exposure): 100%
mortality at 150 µg/mL ([2]; 48 hours exposure): 100%
mortality at 25 µg/mL ([2]; 120 hours exposure): 98.8 ± 1.8%
mortality at 50 µg/mL ([2]; 120 hours exposure): 100%
mortality at 100 µg/mL ([2]; 120 hours exposure): 100%
mortality at 150 µg/mL ([2]; 120 hours exposure): 100%
mortality at 25 µg/mL ([3]; 24 hours exposure): 0%
mortality at 50 µg/mL ([3]; 24 hours exposure): 82.6 ± 17.8%
mortality at 100 µg/mL ([3]; 24 hours exposure): 98.4 ± 3.3%
mortality at 150 µg/mL ([3]; 24 hours exposure): 99.2 ± 1.7%
mortality at 25 µg/mL ([3]; 48 hours exposure): 86.5%
mortality at 50 µg/mL ([3]; 48 hours exposure): 100%
mortality at 100 µg/mL ([3]; 48 hours exposure): 100%
mortality at 150 µg/mL ([3]; 48 hours exposure): 100%
mortality at 25 µg/mL ([3]; 120 hours exposure): 51.4 ± 11.6%
mortality at 50 µg/mL ([3]; 120 hours exposure): 73.4 ± 17.7%
mortality at 100 µg/mL ([3]; 120 hours exposure): 97.3 ± 3.2%
mortality at 150 µg/mL ([3]; 120 hours exposure): 100%
Insect Survivors [4, 10]: 0
Insect Survivors [4, 11]: 0
Insect Survivors [4, 12]: 0
Insect Survivors [4, 13]: 22.33
Insect Survivors [4, 14]: 0.33
Insect Survivors [4, 15]: 0
mortality at 200 µg/mL ([4]; Sitophilus oryzae, with perforated tubing, bottom layer): 100%
mortality at 200 µg/mL ([4]; Sitophilus oryzae, with perforated tubing, middle layer): 100%
mortality at 200 µg/mL ([4]; Sitophilus oryzae, with perforated tubing, top layer): 100%
mortality at 200 µg/mL ([4]; Sitophilus oryzae, without perforated tubing, bottom layer): 95.3%
mortality at 200 µg/mL ([4]; Sitophilus oryzae, without perforated tubing, middle layer): 99.9%
mortality at 200 µg/mL ([4]; Sitophilus oryzae, without perforated tubing, top layer): 100%
dosage for 100% kill of all stages ([4]; Sitophilus oryzae, all stages, preferred exposure period 72 hours): 200 mg per litre of space
Insect Survivors [5, 10]: 0
Insect Survivors [5, 11]: 0
Insect Survivors [5, 12]: 0
Insect Survivors [5, 13]: 0.67
Insect Survivors [5, 14]: 0
Insect Survivors [5, 15]: 0
mortality at 200 µg/mL ([5]; Rhyzopertha dominica, with perforated tubing, bottom layer): 100%
mortality at 200 µg/mL ([5]; Rhyzopertha dominica, with perforated tubing, middle layer): 100%
mortality at 200 µg/mL ([5]; Rhyzopertha dominica, with perforated tubing, top layer): 100%
mortality at 200 µg/mL ([5]; Rhyzopertha dominica, without perforated tubing, bottom layer): 99.6%
mortality at 200 µg/mL ([5]; Rhyzopertha dominica, without perforated tubing, middle layer): 100%
mortality at 200 µg/mL ([5]; Rhyzopertha dominica, without perforated tubing, top layer): 100%
dosage for 100% kill of all stages ([5]; Rhyzopertha dominica, all stages, preferred exposure period 72 hours): 200 mg per litre of space
LD 50 rat oral (rat): LD 50 rat oral 130 mg/kg
% mortality based on survivors in controls ([6]; 100 mg/liter): (98.9) %
No. of survivors from 50 g lots of mixed-age cultures following treatment ([6]; 100 mg/liter): 11.5
% mortality based on survivors in controls ([6]; 150 mg/liter): (99.9) %
No. of survivors from 50 g lots of mixed-age cultures following treatment ([6]; 150 mg/liter): 1
% mortality based on survivors in controls ([6]; 200 mg/liter): (100) %
No. of survivors from 50 g lots of mixed-age cultures following treatment ([6]; 200 mg/liter): 0
% mortality based on survivors in controls ([6]; 400 mg/liter): (100) %
No. of survivors from 50 g lots of mixed-age cultures following treatment ([6]; 400 mg/liter): 0
% mortality based on survivors in controls ([6]; 600 mg/liter): (100) %
No. of survivors from 50 g lots of mixed-age cultures following treatment ([6]; 600 mg/liter): 0
% mortality based on survivors in controls ([6]; 800 mg/liter): (100) %
No. of survivors from 50 g lots of mixed-age cultures following treatment ([6]; 800 mg/liter): 0
% mortality based on survivors in controls ([7]; 100 mg/liter): (100) %
No. of survivors from 50 g lots of mixed-age cultures following treatment ([7]; 100 mg/liter): 0
% mortality based on survivors in controls ([7]; 150 mg/liter): (100) %
No. of survivors from 50 g lots of mixed-age cultures following treatment ([7]; 150 mg/liter): 0
% mortality based on survivors in controls ([7]; 200 mg/liter): (100) %
No. of survivors from 50 g lots of mixed-age cultures following treatment ([7]; 200 mg/liter): 0
% mortality based on survivors in controls ([7]; 400 mg/liter): (100) %
No. of survivors from 50 g lots of mixed-age cultures following treatment ([7]; 400 mg/liter): 0
% mortality based on survivors in controls ([7]; 600 mg/liter): (100) %
No. of survivors from 50 g lots of mixed-age cultures following treatment ([7]; 600 mg/liter): 0
% mortality based on survivors in controls ([7]; 800 mg/liter): (100) %
No. of survivors from 50 g lots of mixed-age cultures following treatment ([7]; 800 mg/liter): 0
% mortality based on survivors in controls ([8]; exposure period 24 hour): (100) %
No. of survivors from 50 g lots of mixed-age cultures following treatment ([8]; exposure period 24 hour): 0
% mortality based on survivors in controls ([8]; exposure period 48 hour): (100) %
No. of survivors from 50 g lots of mixed-age cultures following treatment ([8]; exposure period 48 hour): 0
% mortality based on survivors in controls ([8]; exposure period 72 hour): (100) %
No. of survivors from 50 g lots of mixed-age cultures following treatment ([8]; exposure period 72 hour): 0
% mortality based on survivors in controls ([9]; exposure period 24 hour): (100) %
No. of survivors from 50 g lots of mixed-age cultures following treatment ([9]; exposure period 24 hour): 0
% mortality based on survivors in controls ([9]; exposure period 48 hour): (100) %
No. of survivors from 50 g lots of mixed-age cultures following treatment ([9]; exposure period 48 hour): 0
% mortality based on survivors in controls ([9]; exposure period 72 hour): (100) %
No. of survivors from 50 g lots of mixed-age cultures following treatment ([9]; exposure period 72 hour): 0
